Data on nine compounds can be found in patent US9809598B2 (Merck Patent GmbH, priority 2014, dated 2017).

As usually defined, the IC50 is the concentration needed to halve the response being measured. By EC50 is commonly meant the concentration giving half of the maximal effect. By pIC50 is commonly meant −log10 of the IC50, conventionally taken in molar units.

pIC50: −log10 of the molar value. Like-named read-outs stand apart in the source and are kept apart here.

For one assay, the target named is T1, PARP-1 (Homo sapiens, UniProt P09874).
T1 construct: purchased Enzo Life Sciences GmbH, Lörrach, Germany
In words: PARP-1 autoparsylation assay (HTRF). The class given is biochemical. As to conditions: His-tagged Parp-1, autoparsylation HTRF. The text has this:
Description of the PARP1 Assay
Biochemical Activity Testing of PARP-1: Autoparsylation Assay
The autoparsylation assay is run in two steps: the enzymatic reaction in which His-tagged Parp-1 transfers biotinylated ADP-ribose/ADP-ribose to itself from biotinylated NAD/NAD as co-substrate and the detection reaction where a time resolved FRET between cryptate labelled anti-His antibody bound to the His tag of the enzyme and Xlent® labelled-streptavidin bound the biotin-parsylation residue is analysed. The autoparsylation activity is detectable directly via the increase in HTRF signal.
The autoparsylation assay is performed as 384-well HTRF® (Cisbio, Codolet, France) assay format in Greiner low volume nb 384-well microtiter plates. […] The ratio of the emission signals is determined. The full value used is the inhibitor-free reaction. The pharmacological zero value used is Olaparib (LClabs, Woburn, US) in a final concentration of 1 μM. The inhibitory values (IC50) are determined using either the program Symyx Assay Explorer® or Condosseo® from GeneData.
On the technique in general: Time-resolved FRET reads energy transfer from a long-lived donor to a nearby acceptor.

A further assay addresses T2, TNKS2 (Homo sapiens, UniProt Q9H2K2).
T2 construct: GST-tagged Tnks-2 (873-1166 aa, prepared in-house); made in house
In words: TNKS2 activity ELISA (autoparsylation assay). The class given is biochemical. As to conditions: for IC50: GST-tagged Tnks-2 (873-1166 aa), read-out: IC50 [M] TNKS2 ELISA. In a few lines:
(§1)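 GST-tagged TNKS1 or TNKS2 captured on glutathione plates and allowed to auto-PARsylate with biotinylated NAD with or without compound. Biotin-ADP-ribosylated enzyme detected by streptavidin-HRP and luminescence; IC50 relative to inhibitor-free reaction.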

The test system of the next assay is Tankyrases. The following applies: read-out: EC50 [M] TNKS cellular assay; DLD1 cells, 24 hours, Axin2 increase.
The target in a further assay is T3, TNKS1 (Homo sapiens, UniProt O95271).
T3 construct: GST-tagged Tnks-1 (1023-1327 aa, prepared in-house); made in house
In words: TNKS1 activity ELISA (autoparsylation assay). The format is biochemical. The following applies: GST-tagged Tnks-1 (1023-1327 aa). The method, boiled down:
as §1
In general terms: ELISA stands for enzyme-linked immunosorbent assay.

T2 sequence (Q9H2K2 873-1166): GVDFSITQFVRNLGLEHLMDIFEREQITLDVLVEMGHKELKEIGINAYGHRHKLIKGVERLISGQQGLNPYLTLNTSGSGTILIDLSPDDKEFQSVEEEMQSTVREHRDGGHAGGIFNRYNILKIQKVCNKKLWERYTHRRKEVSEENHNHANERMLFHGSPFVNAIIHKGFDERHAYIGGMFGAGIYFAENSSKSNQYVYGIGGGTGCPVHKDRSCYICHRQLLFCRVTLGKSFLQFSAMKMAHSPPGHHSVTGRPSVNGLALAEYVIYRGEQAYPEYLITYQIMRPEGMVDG
T1 sequence (P09874 whole entry): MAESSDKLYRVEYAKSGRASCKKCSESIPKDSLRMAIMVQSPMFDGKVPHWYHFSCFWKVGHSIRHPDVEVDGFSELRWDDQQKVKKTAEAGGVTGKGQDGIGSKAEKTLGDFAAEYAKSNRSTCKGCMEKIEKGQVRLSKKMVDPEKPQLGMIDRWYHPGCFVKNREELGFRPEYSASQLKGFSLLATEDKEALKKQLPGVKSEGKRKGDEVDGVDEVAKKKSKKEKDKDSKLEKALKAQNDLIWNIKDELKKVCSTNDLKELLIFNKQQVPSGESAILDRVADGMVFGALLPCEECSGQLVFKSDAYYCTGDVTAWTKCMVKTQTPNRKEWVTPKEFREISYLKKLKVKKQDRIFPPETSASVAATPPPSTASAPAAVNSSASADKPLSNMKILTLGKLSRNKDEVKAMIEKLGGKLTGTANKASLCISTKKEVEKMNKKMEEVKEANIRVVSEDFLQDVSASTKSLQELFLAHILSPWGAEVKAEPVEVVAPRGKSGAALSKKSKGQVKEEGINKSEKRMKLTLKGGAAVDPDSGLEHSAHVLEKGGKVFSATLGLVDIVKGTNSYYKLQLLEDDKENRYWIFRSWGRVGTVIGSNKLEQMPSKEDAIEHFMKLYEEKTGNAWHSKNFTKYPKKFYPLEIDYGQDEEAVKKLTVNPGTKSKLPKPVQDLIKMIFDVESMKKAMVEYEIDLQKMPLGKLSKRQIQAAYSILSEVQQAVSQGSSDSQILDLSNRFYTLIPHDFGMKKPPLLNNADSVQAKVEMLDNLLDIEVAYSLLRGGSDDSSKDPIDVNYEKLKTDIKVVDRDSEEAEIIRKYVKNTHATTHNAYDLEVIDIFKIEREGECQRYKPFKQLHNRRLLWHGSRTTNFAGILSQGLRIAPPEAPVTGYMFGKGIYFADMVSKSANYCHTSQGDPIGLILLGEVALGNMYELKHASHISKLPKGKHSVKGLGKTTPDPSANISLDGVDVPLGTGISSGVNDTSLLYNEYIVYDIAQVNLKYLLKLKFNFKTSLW
T3 sequence (O95271 1023-1327): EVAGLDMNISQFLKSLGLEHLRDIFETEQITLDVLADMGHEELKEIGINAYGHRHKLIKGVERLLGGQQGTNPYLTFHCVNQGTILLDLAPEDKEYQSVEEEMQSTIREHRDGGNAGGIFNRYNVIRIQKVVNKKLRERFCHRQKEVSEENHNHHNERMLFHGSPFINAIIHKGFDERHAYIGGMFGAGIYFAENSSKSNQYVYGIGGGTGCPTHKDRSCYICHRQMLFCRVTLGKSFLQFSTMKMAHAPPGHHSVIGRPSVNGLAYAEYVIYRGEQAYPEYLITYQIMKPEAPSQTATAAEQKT
Description for Tankyrases: Measurement of Cellular Inhibition of Tankyrase
Cells of the colon carcinoma cell line DLD1 are plated in 96 well plates with 1.5×10^4 cells per well. Next day, cells are treated with a serial dilution of test compound in seven steps as triplicates with a final DMSO concentration of 0.3%. […] The amount of isolated Axin2 protein is determined in a Luminex^200 machine (Luminex Corporation) according to the manufacturer's instruction by counting 100 events per well. […] As controls cells are treated with solvent alone (neutral control) and with a Tankyrase reference inhibitor IWR-2 (3E−06 M) which refers as control for maximum increase of Axin2. For analysis, the obtained data are normalized against the untreated solvent control and fitted for determination of the EC50 values using the Assay Explorer software (Accelrys).

For the compound `COc1ccc(C(=O)C2CCN(C(=O)CCCc3nc4c(cnn4C)c(=O)[nH]3)CC2)cc1C` [Compound C49, 6-{4-[4-(4-Methoxy-3-methyl-benzoyl)-piperidin-1-yl]-4-oxo-butyl}-1-methyl-1,5-dihydro-pyrazolo[3,4-d]pyrimidin-4-one], the figures for the IC50 against PARP-1, on TNKS2 and on TNKS1 were 9900 nM, 1.4e-10 M and 0.16 nM, respectively. In the assay with Tankyrases, the concentration for a half-maximal effect (EC50) is 3.1e-10 M.
Taken in the same sequence, the figures for `Cn1ncc2c(=O)[nH]c(CCCC(=O)N3CCC(C(=O)c4ccc(C(C)(C)O)cc4)CC3)nc21` [Compound C50, 6-{4-{4-[4-(1-Hydroxy-1-methyl-ethyl)benzoyl]-1-piperidyl}-4-oxo-butyl}-1-methyl-5H-pyrazolo[3,4-d]pyrimidin-4-one] were 23000 nM, 4e-09 M, 11 nM and 3.8e-07 M.
Regarding `Cc1csc2c(=O)[nH]c(CCCC(=O)N3CCC(c4nnc(-c5ccccc5)o4)CC3)nc12` [Compound C54, 7-Methyl-2-{4-oxo-4-[4-(5-phenyl-[1,3,4]oxadiazol-2-yl)-piperidin-1-yl]-butyl}-3H-thieno[3,2-d]pyrimidin-4-one], the IC50 worked out at 1500 nM on PARP-1, 1.8e-09 M at TNKS2 and 4.7 nM against TNKS1. The EC50 in the assay with Tankyrases was found to be 1.4e-08 M.
The corresponding values for `COc1ccc(C(=O)C2CCN(C(=O)CCCc3nc4c(C)csc4c(=O)[nH]3)CC2)cc1F` [Compound C55, 2-{4-[4-(3-Fluoro-4-methoxy-benzoyl)-piperidin-1-yl]-4-oxo-butyl}-7-methyl-3H-thieno[3,2-d]pyrimidin-4-one] are 400 nM, 1.2e-10 M, 0.18 nM and 1.9e-09 M.
With `Cc1csc2c(=O)[nH]c(CCCC(=O)N3CCC(c4cnc(N)c(C#N)c4)CC3)nc12` [Compound C56, 6-Amino-1′-[4-(7-methyl-4-oxo-3,4-dihydro-thieno[3,2-d]pyrimidin-2-yl)-butyryl]-1′,2′,3′,4′,5′,6′-hexahydro-[3,4′]bipyridinyl-5-carbonitrile], the figures for the IC50 on PARP-1, at TNKS2 and against TNKS1 were 360 nM, 5.3e-10 M and 0.95 nM, respectively. For the same compound, the EC50 in the assay on Tankyrases was found to be 3.6e-08 M.
As for `COc1ccc(C(=O)C2CCN(C(=O)CCCc3cn4c(C)ccc4c(=O)[nH]3)CC2)cn1` [Compound C57, 3-{4-[4-(6-Methoxy-pyridine-3-carbonyl)-piperidin-1-yl]-4-oxo-butyl}-6-methyl-2H-pyrrolo[1,2-a]pyrazin-1-one], the values for the IC50 at PARP-1 and against TNKS1 were 0.48 nM and 0.19 nM, respectively. This compound gave a pIC50 against TNKS2 of 9.74. In addition, in the assay with Tankyrases, the EC50 is 7.7e-10 M.
With `Cc1ccc2c(=O)[nH]c(CCCC(=O)N3CCC(C(=O)c4cnn(C)c4)CC3)cn12` [Compound C62, 6-Methyl-3-{4-[4-(1-methyl-1H-pyrazole-4-carbonyl)-piperidin-1-yl]-4-oxo-butyl}-2H-pyrrolo[1,2-a]pyrazin-1-one], the concentration for half-maximal inhibition (IC50) against PARP-1 came to 800 nM; on TNKS2 it was 1.2e-10 M; at TNKS1, 0.16 nM. Also, the EC50 in the assay with Tankyrases stood at 3.5e-09 M.
Take `Cn1cc(C(=O)C2CCN(C(=O)CCCc3cn4cc(F)cc4c(=O)[nH]3)CC2)cn1` [Compound C78, 7-Fluoro-3-{4-[4-(1-methyl-1H-pyrazole-4-carbonyl)-piperidin-1-yl]-4-oxo-butyl}-2H-pyrrolo[1,2-a]pyrazin-1-one]: the IC50 was 1200 nM on PARP-1, 1.6e-10 M on TNKS2 and 0.24 nM against TNKS1. In the assay with Tankyrases, the EC50 amounted to 2.9e-09 M.
Turning to `COc1ccc(C(=O)C2CCN(C(=O)CCCc3cn4c(C)ncc4c(=O)[nH]3)CC2)cn1` [Compound C99, 6-{4-[4-(6-Methoxy-pyridine-3-carbonyl)-piperidin-1-yl]-4-oxo-butyl}-3-methyl-7H-imidazo[1,5-a]pyrazin-8-one], the IC50 was determined as 6700 nM at PARP-1, 1.1e-08 M at TNKS2 and 0.37 nM at TNKS1. Further, the EC50 with Tankyrases was found to be 1.1e-08 M.
